Reference: patent US11525063B2, “Fluorescent oxygen sensing ink” (The Board of Trustees of Western Michigan University, priority 2018, dated 2022)
Read-outs that look alike come from different tables or passages of the source.

Experiments:
[1] = test system: L-929 mouse fibroblast cells
Method: (§1) All samples were ≤0.5 mm thick and prepared as 8 mm-diameter discs (surface area of 0.50 cm^2). […] An aliquot was counted using trypan blue, and then cells were re-suspended in complete growth medium at a density of 1×10^5 cells/ml. […] After 24 h, the culture medium was removed and replaced with 100 μl of extractant. Some wells received sodium dodecyl sulfate (0 to 400 μM in EMEM; positive controls), low-density polyethylene extract (1.25 cm^2 LDPE/ml EMEM; negative control), or complete growth medium alone. Cells were then cultured for an additional 24 h. Images (mag. of 100× and 200×) of cell cultures were recorded by photo microscopy using a Olympus CK40 inverted microscope and Insight2 SPOT camera (Diagnostic Imaging) and the number of attached and dead cells were manually counted at a later time using ImageJ (NIH). […] Subsequently, cells in culture plates were washed once with Hank's Balanced Salt Solution and metabolic activity was measured by incubating cells with 100 μl of WST-1 cell proliferation reagent (Roche Diagnostics) for up to 4 h at 37° C. To determine cytotoxicity, absorbance of the medium in wells was measured at 450 nm after 2 and 4 h using a microplate reader (PHERAstar) and was corrected using absorbance measurements at 630 nm and using blanks. To check for mycoplasma contamination of the cultures, medium was saved and tested using the luminescent MycoAlert Plus mycoplasma detection kit (Lonza).
Absorbance is proportional to the amount of formazan product generated by the metabolic activity of cells. Thus, lower absorbance values correlate with increased cytotoxicity.
An aliquot was counted using trypan blue, and then cells were re-suspended in complete growth medium at a density of 1×10^5 cells/ml. […] After 24 h, the culture medium was removed and replaced with 100 μl of extractant. Some wells received sodium dodecyl sulfate (SDS; 0 to 400 μM in EMEM; positive controls), low-density polyethylene extract (1.25 cm^2 LDPE/ml EMEM; negative control) or complete growth medium alone. Cells were then cultured for an additional 24 h. Subsequently, cells in culture plates were washed once with HBSS and metabolic activity was measured by incubating cells with 100 μl of WST-1 cell proliferation reagent (Roche Diagnostics) for up to 4 h at 37° C.
To determine cytotoxicity, absorbance of the medium in wells was measured at 450 nm after 2 and/or 4 h using a microplate reader (PHERAstar) and was corrected using absorbance measurements at 630 nm and using blanks. Absorbance levels are proportional to the metabolic activity of cells and therefore inversely related to cytotoxicity. To check for mycoplasma contamination of the cultures, medium was saved and tested using the luminescent MycoAlert Plus mycoplasma detection kit (Lonza). Statistical significance was determined using analysis of variance and Tukey-Kramer post-test.

[2] = Effect of sterilization process (H2O2 vapor treatment) on emission peak; format: physicochemical
Method: The fluorescent properties of two materials being encapsulated in both poly-styrene and PDMS (polydimethylsiloxane) polymer binder materials were measured to determine the suitability of the materials in an oxygen sensing system. […] Then 20 μL of mixed solution was cast onto filter paper to form a patch with a diameter of 8 mm. The patch was left in the nitrogen chamber for drying for 24-hours before testing. The PDMS encapsulated sensing patches were fabricated by firstly depositing dye solution onto the filter paper. PDMS was then added to the filter paper after the removal of the solvent. The same amount of dye was used for all samples. The fluorescence spectrum was measured using a UV spectrophotometer. A zero oxygen solution was prepared by nitrogen bubbling a 0.15 mol/L Na2SO3 solution for 30 minutes.

[3] = test system: L-929 mouse fibroblast cells; conditions: 150 μM SDS in EMEM, 24 h
Method: as §1, with “To check for mycoplasma contamination of the cultures, medium was saved and tested using the luminescent MycoAlert Plus mycoplasma detection kit (Lonza).” left out

Row | SMILES | cytotoxicity of extract (conclusion in words) ([1]; cells treated 24 h with extract of Sterrad-sterilized sample) | cytotoxicity of extract (conclusion in words) ([1]; cells treated 24 h with extract of Sterrad-sterilized sample, listed as ruthenium alone on paper) | Mean absorbance (corrected, 450 nm) ([1]; cells treated 24 h with extract of Sterrad-sterilized sample, lower absorbance = more cytotoxic) | metabolic activity relative to cells cultured in EMEM alone ([1]; cells treated 24 h with extract, below 70% considered cytotoxic) | stability to H2O2 vapor treatment [2] | Emission peak After Sterilization ([2]; after H2O2 vapor treatment) | Emission peak Before Sterilization ([2]; before H2O2 vapor treatment) | Morphology score [3] | Mean absorption reading ([1]; 300 μM SDS in EMEM, 24 h) | Concentrations of SDS that were cytotoxic ([1]; mouse)
1 | [Cl-].[Cl-].[Ru+2].c1ccc(-c2ccnc3c2ccc2c(-c4ccccc4)ccnc23)cc1.c1ccc(-c2ccnc3c2ccc2c(-c4ccccc4)ccnc23)cc1.c1ccc(-c2ccnc3c2ccc2c(-c4ccccc4)ccnc23)cc1 [Ru(dpp)3Cl2, Tris(4,7-diphenyl-1,10-phenanthroline) ruthenium II dichloride] | considerable cytotoxicity | cytotoxic | 0.318 | 38.4% | more vulnerable | No emission peak detected | Emission peak detected |  |  | 
2 | CCCCCCCCCCCCOS(=O)(=O)[O-].[Na+] [SDS, sodium dodecyl sulfate, reference compound] |  |  |  |  |  |  |  | 2 | 0 | above 200 μM
